In ChEMBL document CHEMBL1201862, “PubChem BioAssay data set” (2004):
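Dose response: 5 concentrations. Exposure: 48 h. Format: 96-well plates. Endpoint: linear interpolation; highest concentration if not reached. GI50 marks 50% less growth.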 The source made the active and inactive calls. Rule as the data show it: active = GI50 up to about 1.1 µM and inactive = higher.

Key:
Assay in all cases: NCI anticancer screen, dose series, 48 h
NCI-H226 = tested on: NCI-H226
MDA-N = tested on: MDA-N
MDA-MB-435 = tested on: MDA-MB-435
NCI/ADR-RES = tested on: NCI/ADR-RES
KM12 = tested on: KM12
TK-10 = tested on: TK-10
PC-3 = tested on: PC-3
SF-295 = tested on: SF-295
RPMI-8226 = tested on: RPMI-8226
T47D = tested on: T47D
CCRF-CEM = tested on: CCRF-CEM
SF-268 = tested on: SF-268
UO-31 = tested on: UO-31
IGROV-1 = tested on: IGROV-1
A498 = tested on: A498
Hs-578T = tested on: Hs-578T
MOLT-4 = tested on: MOLT-4
SF-539 = tested on: SF-539
SK-MEL-5 = tested on: SK-MEL-5
M19-MEL = tested on: M19-MEL

Measured: GI50

N#CC(c1ccccc1)N(CCc1ccccc1)C(=O)Oc1ccccc1 (stereo unspecified)
inactive: NCI-H226 34.1 µM | MDA-N > 100 µM | MDA-MB-435 > 100 µM | NCI/ADR-RES > 100 µM | KM12 > 100 µM | TK-10 > 100 µM | PC-3 > 100 µM | SF-295 > 100 µM | RPMI-8226 > 100 µM | T47D > 100 µM | CCRF-CEM > 100 µM | SF-268 > 100 µM | UO-31 > 100 µM | IGROV-1 > 100 µM | A498 > 100 µM | Hs-578T 44.8 µM | MOLT-4 > 100 µM | SF-539 > 100 µM | SK-MEL-5 > 100 µM

O=C(NC12CC3CCC1CC(C3)C2)[C@@H]1CCCN1C(=O)OCc1ccccc1 (stereo partly specified)
inactive: NCI-H226 58.9 µM | M19-MEL 83.6 µM | KM12 48.4 µM | TK-10 85.5 µM | SF-295 36.1 µM | RPMI-8226 36.5 µM | CCRF-CEM 36.5 µM | SF-268 94.8 µM | UO-31 24 µM | IGROV-1 > 100 µM | A498 27.9 µM | MOLT-4 30.1 µM | SF-539 > 100 µM

NC(=O)NC1C(C(=O)O)N(Cc2ccccc2)C(=O)N1Cc1ccccc1 (stereo unspecified)
inactive: NCI-H226 > 100 µM | M19-MEL > 100 µM | KM12 > 100 µM | TK-10 > 100 µM | SF-295 > 100 µM | RPMI-8226 > 100 µM | CCRF-CEM > 100 µM | SF-268 > 100 µM | UO-31 > 100 µM | IGROV-1 > 100 µM | MOLT-4 3.72 µM | SF-539 > 100 µM | SK-MEL-5 > 100 µM

COC(=O)C(=O)C(C#N)c1cccc2ccccc12 (stereo unspecified)
inactive: NCI-H226 > 100 µM | M19-MEL > 100 µM | KM12 22.9 µM | SF-295 > 100 µM | RPMI-8226 > 100 µM | CCRF-CEM > 100 µM | SF-268 > 100 µM | UO-31 > 100 µM | IGROV-1 > 100 µM | A498 > 100 µM | MOLT-4 > 100 µM | SF-539 > 100 µM | SK-MEL-5 > 100 µM

NCCCCN(CCCN)/[N+]([O-])=N\O
inactive: NCI-H226 > 100 µM | M19-MEL > 100 µM | KM12 > 100 µM | SF-295 > 100 µM | RPMI-8226 > 100 µM | CCRF-CEM > 100 µM | SF-268 > 100 µM | UO-31 > 100 µM | IGROV-1 > 100 µM | MOLT-4 > 100 µM | SF-539 > 100 µM | SK-MEL-5 > 100 µM

O=C1C=CC2(O)OCC3C=C4O[C@@H]5OC6(CCCCC6)O[C@@H]5C4[C@@H]2[C@@H]13 (stereo partly specified)
inactive: NCI-H226 33.6 µM | M19-MEL 21.1 µM | KM12 38.5 µM | TK-10 20.7 µM | SF-295 > 100 µM | RPMI-8226 16.2 µM | CCRF-CEM 8.73 µM | SF-268 33.2 µM | UO-31 18.6 µM | IGROV-1 56.4 µM | A498 72.4 µM | MOLT-4 9.25 µM | SK-MEL-5 43.5 µM

COC(=O)/C=C/C1C2C3(CCC(C)C12C)OCCS3 (stereo unspecified)
inactive: NCI-H226 > 100 µM | M19-MEL > 100 µM | KM12 > 100 µM | TK-10 > 100 µM | SF-295 > 100 µM | CCRF-CEM 34.3 µM | SF-268 > 100 µM | UO-31 > 100 µM | IGROV-1 > 100 µM | A498 > 100 µM | MOLT-4 40.6 µM | SF-539 > 100 µM | SK-MEL-5 > 100 µM
